# Laboratory results published in ChEMBL document CHEMBL5512660, “Synthesis of LAVR-289, a new [(Z)-3-(acetoxymethyl)-4-(2,4-diaminopyrimidin-6-yl)oxy-but-2-enyl]phosphonic acid prodrug with pronounced antiviral activity against DNA viruses” (Eur J Med Chem, 2024).
# pEC50: −log10 of the molar value.
# Assays:
# Human alphaherpesvirus 3 [1] = experiment: Antiviral activity against thymidine-kinase expressing Varicella zoster virus wild type strain YS infected in human HEL cells assessed as reduction in plaque formation measured after 3 days; format: functional, organism-based; conditions: Human alphaherpesvirus 3, YS, 72 h
# Human alphaherpesvirus 3 [2] = experiment: Antiviral activity against thymidine-kinase expressing Varicella zoster virus wild type strain OKA infected in human HEL cells assessed as reduction in plaque formation measured after 3 days; format: functional, organism-based; conditions: Human alphaherpesvirus 3, OKA, 72 h
# Human alphaherpesvirus 3 [3] = experiment: Antiviral activity against thymidine-kinase deficient acyclovir-resistant Varicella zoster virus strain 07/1 infected in human HEL cells assessed as reduction in plaque formation measured after 3 days; format: functional, organism-based; conditions: Human alphaherpesvirus 3, 07/1, HEL, 72 h
# Human alphaherpesvirus 3 [4] = experiment: Antiviral activity against thymidine-kinase deficient acyclovir-resistant Varicella zoster virus strain YS/R infected in human HEL cells assessed as reduction in plaque formation measured after 3 days; format: functional, organism-based; conditions: Human alphaherpesvirus 3, YS/R, 72 h
# Cytomegalovirus [5] = experiment: Antiviral activity against human cytomegalovirus strain AD-169 infected in human HEL cells assessed as reduction in virus-induced cytopathic effect measured after 3 days; format: functional, organism-based; conditions: Human betaherpesvirus 5, AD-169, HEL, 72 h
# Cytomegalovirus [6] = experiment: Antiviral activity against human cytomegalovirus strain Davis infected in human HEL cells assessed as reduction in virus-induced cytopathic effect measured after 3 days; format: functional, organism-based; conditions: Human betaherpesvirus 5, Davis, 72 h
# [7] = Cytotoxicity against human HEL cells assessed as microscopically detectable alterations in cell morphology measured after 24 hrs; format: toxicity, cell-based; conditions: read-out: MCC50
# [8] = Cytostatic activity against human HEL cells assessed as reduction in cell growth measured after 24 hrs; format: toxicity, cell-based
# Human alphaherpesvirus 1 [9] = experiment: Antiviral activity against thymidine-kinase expressing human herpes virus type 1 KOS infected in human HEL cells assessed as reduction in plaque formation measured after 3 days; format: functional, organism-based; conditions: Human alphaherpesvirus 1, KOS, 72 h
# Human alphaherpesvirus 1 [10] = experiment: Antiviral activity against thymidine-kinase deficient acyclovir-resistant human herpes virus type 1 infected in human HEL cells assessed as reduction in plaque formation measured after 3 days; format: functional, organism-based; conditions: Human alphaherpesvirus 1, HEL, 72 h
# Human alphaherpesvirus 2 = experiment: Antiviral activity against human herpes virus type 2 strain 07/1 infected in human HEL cells assessed as reduction in plaque formation measured after 3 days; format: functional, organism-based; conditions: Human alphaherpesvirus 2, 07/1, HEL, 72 h
# Vaccinia virus = experiment: Antiviral activity against Vaccinia virus […] infected in human HEL cells assessed as reduction in plaque formation measured after 3 days; format: functional, organism-based; conditions: Orthopoxvirus vaccinia, 72 h
# [11] = Selectivity index, ratio of CC50 for human HEL cells to EC50 for thymidine-kinase deficient acyclovir-resistant Varicella zoster virus; format: toxicity; conditions: read-out: Selectivity Index
# [12] = Selectivity index, ratio of CC50 for human HEL cells to EC50 for thymidine-kinase deficient acyclovir-resistant human herpes virus type 1; format: toxicity; conditions: read-out: Selectivity Index
# [13] = Selectivity index, ratio of CC50 for human HEL cells to EC50 for Vaccinia virus […]; format: toxicity; conditions: read-out: Selectivity Index
structure (smiles),measurement,setting,value
CC(C)(C)C(=O)OCOP(=O)(C/C=C/COc1cc(N)nc(N)n1)OCOC(=O)C(C)(C)C,pEC50,Human alphaherpesvirus 3 [1],5.62
same,pEC50,Human alphaherpesvirus 3 [2],6.10
same,pEC50,Human alphaherpesvirus 3 [3],5.85
same,pEC50,Human alphaherpesvirus 3 [4],5.77
same,pEC50,Cytomegalovirus [5],4.35
same,pEC50,Cytomegalovirus [6],4.35
same,MCC at 24 h,[7],> 100 µM
same,CC50 at 24 h,[8],5100 nM
same,pEC50,Human alphaherpesvirus 1 [9],4.87
same,pEC50,Human alphaherpesvirus 1 [10],4.87
same,pEC50,Human alphaherpesvirus 2,4.87
same,pEC50,Vaccinia virus,4.49
CC(=O)OCC(=CCP(=O)(OCOC(=O)C(C)(C)C)OCOC(=O)C(C)(C)C)COc1cc(N)nc(N)n1,pEC50,Human alphaherpesvirus 3 [1],6.44
same,pEC50,Human alphaherpesvirus 3 [2],6.85
same,pEC50,Human alphaherpesvirus 3 [3],6.92
same,pEC50,Human alphaherpesvirus 3 [4],6.74
same,pEC50,Cytomegalovirus [5],5.07
same,pEC50,Cytomegalovirus [6],5.39
same,MCC at 24 h,[7],100 µM
same,CC50 at 24 h,[8],2030 nM
same,pEC50,Human alphaherpesvirus 1 [9],6.22
same,pEC50,Human alphaherpesvirus 1 [10],6.22
same,pEC50,Human alphaherpesvirus 2,5.96
same,pEC50,Vaccinia virus,5.54
CC(C)OC(=O)OCOP(=O)(C/C=C/COc1cc(N)nc(N)n1)OCOC(=O)OC(C)C,pEC50,Human alphaherpesvirus 3 [2],6.07
same,pEC50,Human alphaherpesvirus 3 [3],5.90
same,pEC50,Cytomegalovirus [5],4.35
same,pEC50,Cytomegalovirus [6],4.44
same,MCC at 24 h,[7],> 100 µM
same,CC50 at 24 h,[8],> 100000 nM
same,pEC50,Human alphaherpesvirus 1 [9],5.43
same,pEC50,Human alphaherpesvirus 1 [10],5.24
same,pEC50,Human alphaherpesvirus 2,5.74
CCCCCCCCCCCCCCCCOCCCOP(=O)(C/C=C(\COC(C)=O)COc1cc(N)nc(N)n1)OCOC(=O)OC(C)C (configuration not stated),pEC50,Human alphaherpesvirus 3 [2],8.40
same,pEC50,Human alphaherpesvirus 3 [3],7.74
same,pEC50,Cytomegalovirus [5],7.68
same,MCC at 24 h,[7],100 µM
same,CC50 at 24 h,[8],2320 nM
same,pEC50,Human alphaherpesvirus 1 [9],6.37
same,pEC50,Human alphaherpesvirus 1 [10],8.05
same,pEC50,Human alphaherpesvirus 2,7.82
same,pEC50,Vaccinia virus,7.30
same,selectivity ratio,[11],129
same,selectivity ratio,[12],273
same,selectivity ratio,[13],46
CCCCCCCCCCCCCCCCOCCCOP(=O)(C/C=C/COc1cc(N)nc(N)n1)OCOC(=O)OC(C)C (configuration not stated),pEC50,Human alphaherpesvirus 3 [2],6.74
same,pEC50,Human alphaherpesvirus 3 [3],6.62
same,pEC50,Cytomegalovirus [5],5.15
same,pEC50,Cytomegalovirus [6],5.14
same,MCC at 24 h,[7],100 µM
same,CC50 at 24 h,[8],14500 nM
same,pEC50,Human alphaherpesvirus 1 [9],4.41
same,pEC50,Human alphaherpesvirus 1 [10],4.38
same,pEC50,Human alphaherpesvirus 2,4.41
CC(=O)OC/C(=C\CP(=O)(OCOC(=O)OC(C)C)OCOC(=O)OC(C)C)COc1cc(N)nc(N)n1,pEC50,Human alphaherpesvirus 3 [2],7.05
same,pEC50,Human alphaherpesvirus 3 [3],6.66
same,MCC at 24 h,[7],> 100 µM
same,CC50 at 24 h,[8],15400 nM
same,pEC50,Human alphaherpesvirus 1 [9],6.22
same,pEC50,Human alphaherpesvirus 1 [10],6.40
same,pEC50,Human alphaherpesvirus 2,6.46
same,pEC50,Vaccinia virus,5.39
Nc1nc2c(ncn2COCCO)c(=O)[nH]1 [ACYCLOVIR],pEC50,Human alphaherpesvirus 3 [4],4.18
same,MCC at 24 h,[7],> 300 µM
same,CC50 at 24 h,[8],470000 nM
same,pEC50,Vaccinia virus,< 3.60
O=c1[nH]c(=O)n([C@H]2C[C@H](O)[C@@H](CO)O2)cc1/C=C/Br [BRIVUDINE],pEC50,Human alphaherpesvirus 3 [2],8.05
same,pEC50,Human alphaherpesvirus 3 [4],4.07
same,MCC at 24 h,[7],> 150 µM
same,CC50 at 24 h,[8],> 150000 nM
same,pEC50,Vaccinia virus,5.24
Nc1ccn(C[C@@H](CO)OCP(=O)(O)O)c(=O)n1 [CIDOFOVIR ANHYDROUS],pEC50,Cytomegalovirus [5],6.14
same,MCC at 24 h,[7],> 350 µM
same,CC50 at 24 h,[8],64000 nM
same,pEC50,Human alphaherpesvirus 1 [10],5.42
same,pEC50,Vaccinia virus,4.54
same,selectivity ratio,[13],2
Nc1nc2c(ncn2COC(CO)CO)c(=O)[nH]1 [GANCICLOVIR],pEC50,Cytomegalovirus [5],5.12
same,MCC at 24 h,[7],> 350 µM
same,CC50 at 24 h,[8],130000 nM
same,pEC50,Human alphaherpesvirus 2,7.22
same,pEC50,Vaccinia virus,< 4.00
